Experimental data as given in ChEMBL document CHEMBL3758102, “Serrulatane Diterpenoid from Eremophila neglecta Exhibits Bacterial Biofilm Dispersion and Inhibits Release of Pro-inflammatory Cytokines from Activated Macrophages” (J Nat Prod, 2015).
Active and inactive are the calls of the source. The rule behind the calls is not given here.

Key:
[1] = test system: Staphylococcus epidermidis; assay: Antibiofilm activity against Staphylococcus epidermidis ATCC 35984 assessed as inhibition of 3 to 6 hrs pre-established biofilm formation at 0.064 umol/well after 20 hrs by safranin staining-based method; type: functional, organism-based
[2] = test system: Staphylococcus epidermidis; assay: Antibiofilm activity against Staphylococcus epidermidis ATCC 35984 assessed as inhibition of 12 hrs pre-established biofilm formation at 0.064 umol/well after 20 hrs by safranin staining-based method; type: functional, organism-based
[3] = test system: Staphylococcus epidermidis; assay: Antibiofilm activity against Staphylococcus epidermidis ATCC 35984 assessed as inhibition of 24 hrs pre-established biofilm formation at 0.064 umol/well after 20 hrs by safranin staining-based method; type: functional, organism-based
[4] = test system: Staphylococcus epidermidis; assay: Antibiofilm activity against Staphylococcus epidermidis ATCC 35984 assessed as 3 hrs pre-established biofilm viable cell count after 20 hrs (reference value: 1 x 10^10 CFU/ml); type: functional
[5] = test system: Staphylococcus epidermidis; assay: Antibiofilm activity against Staphylococcus epidermidis ATCC 35984 assessed as 6 hrs pre-established biofilm viable cell count after 20 hrs (reference value: 8.3 x 10^9 CFU/ml); type: functional
[6] = test system: Staphylococcus epidermidis; assay: Antibiofilm activity against Staphylococcus epidermidis ATCC 35984 assessed as 12 hrs pre-established biofilm viable cell count after 20 hrs (reference value: 1.2 x 10^10 CFU/ml); type: functional
[7] = test system: Staphylococcus epidermidis; assay: Antibiofilm activity against Staphylococcus epidermidis ATCC 35984 assessed as 24 hrs pre-established biofilm viable cell count after 20 hrs (reference value: 1.4 x 10^10 +/- 2.6 x 10^9 CFU/ml); type: functional
[8] = test system: Staphylococcus epidermidis; assay: Antibiofilm activity against Staphylococcus epidermidis ATCC 35984 assessed as reduction in 12 hrs pre-established biofilm viable cell count after 20 hrs (reference value: 1.2 x 10^10 CFU/ml); type: functional
[9] = test system: Staphylococcus epidermidis; assay: Antibiofilm activity against Staphylococcus epidermidis ATCC 35984 assessed as inhibition of 12 hrs pre-established biofilm formation at 0.064 umol/well after 20 hrs by visible spectrometric analysis; type: functional, organism-based
[10] = test system: Staphylococcus epidermidis; assay: Antibiofilm activity against Staphylococcus epidermidis ATCC 35984 assessed as inhibition of 24 hrs pre-established biofilm formation at 0.064 umol/well after 20 hrs by visible spectrometric analysis; type: functional, organism-based
[11] = test system: Staphylococcus epidermidis; assay: Antibiofilm activity against Staphylococcus epidermidis ATCC 35984 assessed as killing of biofilm in 12 hrs pre-established biofilm at 0.064 umol/well after 20 hrs by fluorescence staining-based confocal microscopic analysis; type: functional, organism-based
[12] = test system: Staphylococcus epidermidis; assay: Antibacterial activity against Staphylococcus epidermidis ATCC 35984 incubated overnight by broth microdilution method; type: functional
[13] = test system: BMDM; assay: Inhibition of TNFalpha production in C57Bl/6 mouse BMDM cells at 1.6 to 6.4 uM pretreated prior to LPS-stimulation measured on day 7 by ELISA; type: functional, cell-based; settings: C57BI/6
[14] = test system: BMDM; assay: Inhibition of IL-6 production in C57Bl/6 mouse BMDM cells at 1.6 to 6.4 uM pretreated prior to LPS-stimulation measured on day 7 by ELISA; type: functional, cell-based; settings: C57BI/6
[15] = test system: BMDM; assay: Inhibition of IL-1beta production in C57Bl/6 mouse BMDM cells at 1.6 to 6.4 uM pretreated for 1 hr prior to ATP-stimulation by ELISA; type: functional, cell-based; settings: C57BI/6

MIC [12]	Structure (SMILES)	Activity [1]	Activity [2]	Activity [3]	Activity [4]	Activity [5]	Activity [6]	Activity [7]	Activity [8]	inhibition [9]	inhibition [10]	Activity [11]	inhibition [13]	inhibition [14]	inhibition [15]
	N=C(NCCCCCCNC(=N)NC(=N)Nc1ccc(Cl)cc1)NC(=N)Nc1ccc(Cl)cc1 [CHLORHEXIDINE]	inactive	Active	Active	0 CFU/ml	0 CFU/ml	4 ×10³ CFU/ml	1.3 ×10⁶ CFU/ml	7 log10CFU/ml	Active	Active	Active			
0.66 µM	C[C@H]1COc2c(N3CCN(C)CC3)c(F)cc3c(=O)c(C(=O)O)cn1c23.C[C@H]1COc2c(N3CCN(C)CC3)c(F)cc3c(=O)c(C(=O)O)cn1c23.O [LEVOFLOXACIN]	Active	inactive	inactive	0 CFU/ml	0 CFU/ml	8 ×10³ CFU/ml	2.2 ×10⁶ CFU/ml	7 log10CFU/ml	Active	Active	Active			
	C[C@]12CCC(=O)C=C1CC[C@@H]1[C@@H]2[C@@H](O)C[C@@]2(C)[C@H]1CC[C@]2(O)C(=O)COC(=O)CCC(=O)O												Active	Active	inactive
